# From US6713603B2, “Chiral peptide nucleic acids” (Isis Innovation Limited, priority 1996, dated 2004)
# [cPNA-N] = chiral peptide nucleic acid unit: glycyl-D-proline with cis-4-nucleobase (N: the base); {LysNH2} = C-terminal L-lysinamide cap
# Experiments:
# Sequence ID No. 2 = experiment: Tm of mixed-base cPNA hybridised with complementary oligonucleotide Sequence ID No. 2; assay type: binding
# From the text: (§1) All four bases found in DNA were introduced into the glycyiproline building units with the cis-D configuration and from these mixed cPNAs containing all four nucleobases have been made. The sequence GTAGATCACT, capped at its C-terminus with L-lysinamide was synthesized, and its binding properties with oligonucleotides investigated. Since it is important to determine the preferred orientation of binding of these novel CPNAs to oligonucleotides, both of the possible complementary oligonucleotides were prepared, i.e. Sequence ID No. 2, and Sequence ID No. 3, and hybridised with the chiral PNA.
# (§2) All the Tm measurements were carried out on a Varian CARY 13 UV spectrophotometer equipped with a temperature control system. […] The sample for Tm measurement was prepared by mixing calculated amounts of stock oligonucleotide and nucleopeptide solutions together and the calculated amounts of NaCl and sodium phosphate buffer (pH 7.0) were then added as stock solutions and the final volumes were adjusted to 3.0 ml by addition of water. […] The OD260 was recorded in steps from 5-95° C. (heater temperature) with a temperature increment of 0.25-0.5° C./min, The results were normalised by dividing the absorbance at each temperature by the initial absorbance. […] The melting temperatures were determined from the maxima of the first derivative plots of the normalised OD260 against temperature. […]
# Sequence ID No. 3 = experiment: Tm of mixed-base cPNA hybridised with complementary oligonucleotide Sequence ID No. 3; assay type: binding
# From the text: as §1, §2
# Solubility in water = assay type: physicochemical
# [1] = test system: complementary oligonucleotides; experiment: 1H NMR experiment: mixing cPNA with complementary oligonucleotides (solubility of complex); assay type: physicochemical; conditions: mmolar concentration
# Procedure: Following the promising results obtained on the binding is studies of the cPNA with complementary oligonucleotides by Tm measurement, a ^1H NMR experiment was performed on the mixed sequence decamer, H-Gly-D-Pro(cis-4-G)-Gly-D-Pro(cis-4-T)-Gly-D-Pro(cis-4-A)-Gly-D-Pro(cis-4-G)-Gly-D-Pro(cis-4-A)-Gly-D-Pro(cis-4-T)-Gly-D-Pro(cis-4-C)-Gly-D-Pro(cis-4-A)-Gly-D-Pro(cis-4-C)-Gly-D-Pro(cis-4-T)-LysNH2, and its complementary oligonucleotides, both in parallel and antiparallel fashion. […] In an attempt to overcome this problem it was decided to synthesise a cPNA analogue, containing a hydrophilic spacer amino acid—namely serine—in place of the glycine spacer in the backbone while retaining the cis-D-configuration of the proline moiety. […] Thus the target molecules were diastereomeric thymine-decamers H-[L-Ser-D-Pro(cis-4-T)]10LysNH2 (“LD-ST10”) and H-[D-Ser-D-Pro(cis-4-T)]10LysNH2 (“DD-ST10”).
# poly(rA) = experiment: Melting curves (Tm) of 1:1 hybrids of cPNAs with poly(rA); assay type: binding; conditions: 150 mM sodium chloride, 10 mM sodium phosphate pH 7.0; for Tm with poly (rA): 1:1 hybrid, 260 nm; for % hypochromicity with poly (rA): from melting curves at 260 nm
# Procedure: (§3) The deca-thymine glycyl-proline peptide nucleic acids with cis-L, trans-D and cis-D stereochemistry, and C-terminal L-lysinamide were mixed in 1:1 ratio with poly(rA) and poly(dA) in the presence of 150 mM NaCl and sodium phosphate buffer (10 mM Na^+, pH 7.0) and the Tm determined (FIG. 3). […] The magnitudes of absorbance change were of the order of 30-40%.
# (§4) All the Tm measurements were carried out on a Varian CARY 13 UV spectrophotometer equipped with a temperature control system. The machine was controlled by a CARY 13 software running on an IBM PS/2 system model 30/286. The sample for Tm measurement was prepared by mixing calculated amounts of stock oligonucleotide and nucleopeptide solutions together and the calculated amounts of NaCl and sodium phosphate buffer (pH 7.0) were then added as stock solutions and the final volumes were adjusted to 3.0 ml by addition of water. The samples were transferred to a 10 mm quartz cell with teflon stopper and equilibrated at the starting temperature for at least 30 min. The OD260 was recorded in steps from 5-95° C. (heater temperature) with a temperature increment of 0.25-0.5° C./min, The results were normalised by dividing the absorbance at each temperature by the initial absorbance. Analysis of the data was performed on a KaleidaGraph software 2.1.3 (Abelbeck Software) running on a Macintosh LC III computer. The OD260 was normalised by dividing with the initial OD260. The melting temperatures were determined from the maxima of the first derivative plots of the normalised OD260 against temperature. Percent hyperchromicity was calculated from the ratio of the OD260 at the end of experiment to the initial OD260.
# poly(dA) = experiment: Melting curves (Tm) of 1:1 hybrids of cPNAs with poly(dA); assay type: binding; conditions: for Tm with poly (dA): 1:1 hybrid, 260 nm; for Tm with poly (dA) / % hypochromicity with poly (dA): 150 mM sodium chloride, 10 mM sodium phosphate pH 7.0; for % hypochromicity with poly (dA): from melting curves at 260 nm
# Procedure: as §3
# FIG. 3. The melting curves of the 1:1 hybrids of (a) H-[Gly-L-Pro(cis-4-T)]10-Lys-NH2, (b) H-[Gly-D-Pro(cis-4-T)]10-Lys-NH2, (c) H-[Gly-D-Pro(trans-4-T)]10-Lys-NH2 with poly(dA) at 150 mM NaCl, 10 mM sodium phosphate, pH 7.0 and (d) poly(dA) alone. The poly(dA) concentration was 10.8 μM dA nucleotide. The melting curves were recorded at 260 nm and the rate of heating was 0.5° C./min.
# as §4
# dA10 [2] = experiment: Melting curves (Tm) of hybrids of cPNAs with dA10; assay type: binding; conditions: 260 nm; for Tm with dA10: 150 mM sodium chloride, 10 mM sodium phosphate pH 7.0
# Procedure: Although both cis-D and cis-L analogues gave melting curves with poly(dA) and poly(rA), only the cis-D analogue gave a well-defined melting curve with (dA)10, with Tm=61° C., under the same conditions.
# (§5) Further investigation of the nature of the cis-D peptide nucleic acid-oligonucleotide interaction was undertaken by determining the melting curve with (dT)10.
# as §4
# dA10 [3] = experiment: 1H NMR experiment: mixing DD-ST10 with dA10 (solubility of complex); assay type: physicochemical; conditions: 0.5 mM DD-ST10 in 10% D2O-H2O
# Procedure: A ^1H NMR study of a mixture of DD-ST10 and dA10 was attempted.
# ^1H NMR study of a mixture of DD-ST10 and dA10 was performed on a Bruker AMX 500 spectrometer (500 MHz). The ^1H NMR spectra of DD-ST10 and dA10 were recorded separately (at a concentration of 0.53 mM for the DD-ST10 and 0.67 mM for the dA10 in 10% D2O in H2O).
# (dT)10 = experiment: Melting curve of 1:1 mixture with (dT)10; assay type: binding
# Procedure: as §5
# as §4, with “Analysis of the data was performed on a KaleidaGraph software 2.1.3 (Abelbeck Software) running on a Macintosh LC III computer. The OD260 was normalised by dividing with the initial OD260.” left out
compound,measurement,setting,value
"Cc1cn([C@H]2C[C@@H](C(=O)O)N(C(=O)CNC(=O)OCC3c4ccccc4-c4ccccc43)C2)c(=O)[nH]c1=O [5a, N-(N-Fluoren-9-ylmethoxycarbonylglycyl)-cis-4-(thymin-1-yl)-L-proline]",melting point,,> 200 °C
"O=C(NCC(=O)N1C[C@H](n2ccc(NC(=O)c3ccccc3)nc2=O)C[C@@H]1C(=O)Oc1c(F)c(F)c(F)c(F)c1F)OCC1c2ccccc2-c2ccccc21 [compound 13, N-(N-Fluoren-9-ylmethoxycarbonylglycyl)-cis-4-(N4-benzoylcytosin-1-yl)-D-proline pentafluorophenyl ester]",melting point,,133 to 137 °C
"O=C(NCC(=O)N1C[C@H](n2cnc3c(NC(=O)c4ccccc4)ncnc32)C[C@@H]1C(=O)Oc1c(F)c(F)c(F)c(F)c1F)OCC1c2ccccc2-c2ccccc21 [compound 10, N-(N-Fluoren-9-ylmethoxycarbonylglycyl)-cis-4-(N6-benzoyladenin-9-yl)-D-proline pentafluorophenyl ester]",melting point,,125 to 130 °C
"H-Gly-D-Pro(cis-4-G)-Gly-D-Pro(cis-4-T)-Gly-D-Pro(cis-4-A)-Gly-D-Pro(cis-4-G)-Gly-D-Pro(cis-4-A)-Gly-D-Pro(cis-4-T)-Gly-D-Pro(cis-4-C)-Gly-D-Pro(cis-4-A)-Gly-D-Pro(cis-4-C)-Gly-D-Pro(cis-4-T)-Lys-NH2 (GTAGATCACT; all [cPNA-N], 3' {LysNH2}, methylation of C not given here; glycyl-D-proline chiral PNA backbone, free N-terminus)",Tm with complementary oligonucleotide Sequence ID No. 2,Sequence ID No. 2,47 °C
same,Tm with complementary oligonucleotide Sequence ID No. 3,Sequence ID No. 3,43 °C
same,solubility in water of the cPNA alone,Solubility in water,freely soluble
same,behaviour on mixing with complementary oligonucleotides (parallel and antiparallel),[1],a white precipitate formed immediately
"Cc1cn([C@@H]2C[C@H](C(=O)O)N(C(=O)CNC(=O)OCC3c4ccccc4-c4ccccc43)C2)c(=O)[nH]c1=O [5c, N-(N-Fluoren-9-ylmethoxycarbonylglycyl)-cis-4-(thymin-1-yl)-D-proline]",melting point,,> 200 °C
"Cc1cn([C@H]2C[C@@H](C(=O)Oc3c(F)c(F)c(F)c(F)c3F)N(C(=O)CNC(=O)OCC3c4ccccc4-c4ccccc43)C2)c(=O)[nH]c1=O [6a, N-(N-Fluoren-9-ylmethoxycarbonylglycyl)-cis-4-(thymin-1-yl)-L-proline pentafluorophenyl ester]",melting point,,124 to 126 °C
"CC(C)C(=O)Nc1nc2c(ncn2[C@@H]2C[C@H](C(=O)Oc3c(F)c(F)c(F)c(F)c3F)N(C(=O)CNC(=O)OCC3c4ccccc4-c4ccccc43)C2)c(=O)[nH]1 [compound 16, N-(N-Fluoren-9-ylmethoxycarbonylglycyl)-cis-4-(N2-isobutyrylguanin-9-yl)-D-proline pentafluorophenyl ester]",melting point,,146 to 150 °C
"Cc1cn([C@H]2C[C@H](C(=O)O)N(C(=O)CNC(=O)OCC3c4ccccc4-c4ccccc43)C2)c(=O)[nH]c1=O [5b, N-(N-Fluoren-9-ylmethoxycarbonylglycyl)-trans-4-(thymin-1-yl)-D-proline]",melting point,,> 200 °C
"Cc1cn([C@H]2C[C@H](C(=O)Oc3c(F)c(F)c(F)c(F)c3F)N(C(=O)CNC(=O)OCC3c4ccccc4-c4ccccc43)C2)c(=O)[nH]c1=O [6b, N-(N-Fluoren-9-ylmethoxycarbonylglycyl)-trans-4-(thymin-1-yl)-D-proline pentafluorophenyl ester]",melting point,,115 to 124 °C
H-[Gly-D-Pro(trans-4-T)]10-Lys-NH2 [H-[Gly-D-Pro(trans-4-T)]10-LysNH2],Tm with poly (rA),poly(rA),No melting
same,Tm with poly (dA),poly(dA),No melting
same,Tm with dA10,dA10 [2],No melting
same,solubility in water compared with the other T10 cPNAs,Solubility in water,considerably more soluble than the other two
H-[D-Ser-D-Pro(cis-4-T)]10LysNH2 [DD-ST10],behaviour on addition of 20 mol % of dA10,dA10 [3],an immediate precipitation occurred
H-[Gly-L-Pro(cis-4T)]10-Lys-NH2 [H-[Gly-L-Pro(cis-4-T)]10-LysNH2],Tm with poly (rA),poly(rA),73 °C
same,% hypochromicity with poly (rA),poly(rA),36%
same,Tm with poly (dA),poly(dA),69 °C
same,% hypochromicity with poly (dA),poly(dA),40%
same,Tm with dA10,dA10 [2],42 °C
same,Tm with dA10,dA10 [2]; listed as cis-L analogue,near room temperature
"Cc1cn([C@@H]2C[C@H](C(=O)Oc3c(F)c(F)c(F)c(F)c3F)N(C(=O)CNC(=O)OCC3c4ccccc4-c4ccccc43)C2)c(=O)[nH]c1=O [6c, N-(N-Fluoren-9-ylmethoxycarbonylglycyl)-cis-4-(thymin-1-yl)-D-proline pentafluorophenyl ester]",melting point,,122 to 126 °C
H-[Gly-D-Pro(cis-4-T)]10-Lys-NH2 [H-[Gly-D-Pro(cis-4-T)]10-LysNH2],Tm with poly (rA),poly(rA),72 °C
same,% hypochromicity with poly (rA),poly(rA),45%
same,Tm with poly (dA),poly(dA),70 °C
same,"binding with poly(dA), comparison of the 10 mers","poly(dA); 10 mers derived from (6a), (6b) and (6c)",binds most strongly
same,% hypochromicity with poly (dA),poly(dA),28%
same,Tm with dA10,dA10 [2],61 °C
same,hyperchromicity of 1:1 mixture with (dA)10,dA10 [2]; on heating,ca. 20%
same,"increase in absorbance at 260 nm on heating, 1:1 mixture with (dT)10",(dT)10,no significant increase
